The test system of one test is Salmonella choleraesuis. The test can be described thus: MBEC device biofilm photodynamic killing (Example 1). Format: cell-based. Also on record: key to Killing of Salmonella cholerasuis biofilm (eradication or growth): “−” = biofilm eradication at the mentioned conditions (concentration, exposure time and Light source); “+” = biofilm growth. The note with it: for Killing of Salmonella cholerasuis biofilm (eradication or growth): 16 Hours exposure. From the text: (§1) Test microorganisms included Salmonella choleraesuis, Staphylococcus aureus, foodborne pathogens of humans. Test Compounds included Methylene blue, Hemoglobin (blood product), Hemin (blood product), Protoporphyrin (blood product), Annatto Extract (15% Norbixin), beet juice, Canthaxanthin (10%), Beta-carotene (1%), Purple carmine 50%, Carmine lake 60%, Black Carrot extract, Tomato lycopene (5%), sodium copper chlorophyllin, grape skin extract, paprika oleoresin, riboflavin, saffron, titanium dioxide, FD&C blue No1., turmeric oleoresin, FD&C blue No. 2, FD&C Green No. 3, FD&C Red No. 2 (Amaranth), FD&C Red No. 40, FD&C Yellow No. 5, and FD&C Yellow No. 6. Compounds were prepared as 1%, 0.1%, 0.01%, by weight, dissolved in water.
(§2) The light source was a full spectrum fluorescent light or LED light and the contact time was 1 and 16 hours. The study temperature was 37° C.
(§3) Approximately 10^6 organisms in 150 uL Cation Adjusted Mueller Hinton Broth (CAMHB) were placed in each of the wells of a 96 peg MBEC device. The lid of the 96 peg MBEC device was placed on the bottom plate containing organism. The device was placed on a shaker, set to 110 rpm, and incubated at 37° C. for 24 hours to produce biofilms.
(§4) The challenge plates were set up using a sterile 96-well microtitre plate using aseptic techniques in the following manner (one organism per plate, per light exposure time, per light source). Test solutions (200 uL) were placed into each well. The lid was transferred to the challenge plate and exposed to the various light sources for the prescribed exposure times (16 hours). Following the treatment, the pegs were transferred to the recovery media (“recovery plate”) then wrapped in tin foil and incubated at 37° C. for 18 to 24 hours. The recovery plate(s) was wrapped in tin foil, incubated at 37° C. for 24 hours and read visually and by a plate reader, set to an optical density measurement of 630 nm, to determine Minimum Biofilm Eradication Concentration (MBEC) by looking at growth or no growth.

In a further test the test system is Staphylococcus aureus. Described as above. It counts as cell-based. The arrangement: key to Killing of Staph aureus biofilm (eradication or growth): “−” = biofilm eradication at the mentioned conditions (concentration, exposure time and Light source); “+” = biofilm growth. The conditions noted are these: 16 Hours exposure.
Source text: as §1, §2, §3, §4

As to `O=S(=O)([O-])c1ccc2c(N=Nc3ccc(S(=O)(=O)[O-])c4ccccc34)c(O)c(S(=O)(=O)[O-])cc2c1.[Na+].[Na+].[Na+]` [Red No. 2, FD&C Red No. 2 (Amaranth)], the “Killing of Salmonella cholerasuis biofilm (eradication or growth)” value in the test on Salmonella choleraesuis (Fluorescent Light, 0.01%) is given as “+”; in the test with Salmonella choleraesuis (Fluorescent Light, 0.1%) it was “+”; in the test on Salmonella choleraesuis (Fluorescent Light, 1%) it was “+”; with Salmonella choleraesuis (LED Light, 0.01%) it was “+”; in the test on Salmonella choleraesuis (LED Light, 0.1%) it was “+”; with Salmonella choleraesuis (LED Light, 1%), “+”. The “Killing of Staph aureus biofilm (eradication or growth)” value (shortened to “Killing of Staph aureus biofilm”) in the test with Staphylococcus aureus (Fluorescent Light, 0.01%) is on record as “+”; with Staphylococcus aureus (Fluorescent Light, 0.1%) it was “+”; in the test with Staphylococcus aureus (Fluorescent Light, 1%), “+”; with Staphylococcus aureus (LED Light, 0.01%), “+”; with Staphylococcus aureus (LED Light, 0.1%), “+”; in the test with Staphylococcus aureus (LED Light, 1%) it was “+”.
With `COc1cc(S(=O)(=O)[O-])c(C)cc1N=Nc1c(O)ccc2cc(S(=O)(=O)[O-])ccc12.[Na+].[Na+]` [Red No. 40, FD&C Red No. 40], the “Killing of Salmonella cholerasuis biofilm (eradication or growth)” value is “+” in the test with Salmonella choleraesuis (Fluorescent Light, 0.01%); “+” with Salmonella choleraesuis (Fluorescent Light, 0.1%); “+” in the test on Salmonella choleraesuis (Fluorescent Light, 1%); “+” in the test on Salmonella choleraesuis (LED Light, 0.01%); “+” in the test with Salmonella choleraesuis (LED Light, 0.1%); “+” with Salmonella choleraesuis (LED Light, 1%). For the same compound, the “Killing of Staph aureus biofilm” value in the test with Staphylococcus aureus (Fluorescent Light, 0.01%) was “+”; in the test on Staphylococcus aureus (Fluorescent Light, 0.1%), “+”; in the test with Staphylococcus aureus (Fluorescent Light, 1%) it was “+”; with Staphylococcus aureus (LED Light, 0.01%) it was “+”; in the test on Staphylococcus aureus (LED Light, 0.1%), “+”; with Staphylococcus aureus (LED Light, 1%), “+”.
With `Cc1cc2nc3c(=O)[nH]c(=O)nc-3n(C[C@H](O)[C@H](O)[C@H](O)CO)c2cc1C` [Riboflavin, riboflavin], the “Killing of Salmonella cholerasuis biofilm (eradication or growth)” value is on record as “+” with Salmonella choleraesuis (Fluorescent Light, 0.01%); “+” with Salmonella choleraesuis (Fluorescent Light, 0.1%); “+” in the test with Salmonella choleraesuis (Fluorescent Light, 1%); “+” in the test with Salmonella choleraesuis (LED Light, 0.01%); “+” in the test with Salmonella choleraesuis (LED Light, 0.1%); “+” in the test with Salmonella choleraesuis (LED Light, 1%). The “Killing of Staph aureus biofilm” value is reported as “+” in the test with Staphylococcus aureus (Fluorescent Light, 0.01%); “+” with Staphylococcus aureus (Fluorescent Light, 0.1%); “+” with Staphylococcus aureus (Fluorescent Light, 1%); “+” in the test on Staphylococcus aureus (LED Light, 0.01%); “+” with Staphylococcus aureus (LED Light, 0.1%); “+” in the test with Staphylococcus aureus (LED Light, 1%).
On to `O=C([O-])C1=NN(c2ccc(S(=O)(=O)[O-])cc2)C(=O)C1N=Nc1ccc(S(=O)(=O)[O-])cc1.[Na+].[Na+].[Na+]` (stereo not shown) [Yellow No. 5, FD&C Yellow No. 5], for which the “Killing of Salmonella cholerasuis biofilm (eradication or growth)” value in the test on Salmonella choleraesuis (Fluorescent Light, 0.01%) is given as “+”; with Salmonella choleraesuis (Fluorescent Light, 0.1%), “+”; in the test on Salmonella choleraesuis (Fluorescent Light, 1%), “+”; with Salmonella choleraesuis (LED Light, 0.01%), “+”; in the test on Salmonella choleraesuis (LED Light, 0.1%), “+”; with Salmonella choleraesuis (LED Light, 1%) it was “+”. In addition, the “Killing of Staph aureus biofilm” value with Staphylococcus aureus (Fluorescent Light, 0.01%) is listed as “+”; in the test on Staphylococcus aureus (Fluorescent Light, 0.1%), “+”; in the test with Staphylococcus aureus (Fluorescent Light, 1%), “+”; in the test on Staphylococcus aureus (LED Light, 0.01%), “+”; in the test with Staphylococcus aureus (LED Light, 0.1%) it was “+”; with Staphylococcus aureus (LED Light, 1%), “+”.
As for `O=S(=O)([O-])c1ccc(N=Nc2c(O)ccc3cc(S(=O)(=O)[O-])ccc23)cc1.[Na+].[Na+]` [Yellow No. 6, FD&C Yellow No. 6], the “Killing of Salmonella cholerasuis biofilm (eradication or growth)” value in the test with Salmonella choleraesuis (Fluorescent Light, 0.01%) is given as “+”; in the test on Salmonella choleraesuis (Fluorescent Light, 0.1%), “+”; in the test with Salmonella choleraesuis (Fluorescent Light, 1%), “+”; with Salmonella choleraesuis (LED Light, 0.01%), “+”; with Salmonella choleraesuis (LED Light, 0.1%), “+”; in the test on Salmonella choleraesuis (LED Light, 1%), “+”. Also, the “Killing of Staph aureus biofilm” value with Staphylococcus aureus (Fluorescent Light, 0.01%) is “+”; with Staphylococcus aureus (Fluorescent Light, 0.1%), “+”; with Staphylococcus aureus (Fluorescent Light, 1%), “+”; in the test with Staphylococcus aureus (LED Light, 0.01%), “+”; in the test with Staphylococcus aureus (LED Light, 0.1%), “+”; in the test with Staphylococcus aureus (LED Light, 1%), “+”.
Regarding `CC1=C(/C=C/C(C)=C/C=C/C(C)=C/C=C/C=C(C)/C=C/C=C(C)/C=C/C2=C(C)CCCC2(C)C)C(C)(C)CCC1` [β-Carotene, Beta-carotene], the “Killing of Salmonella cholerasuis biofilm (eradication or growth)” value is listed as “+” with Salmonella choleraesuis (Fluorescent Light, 0.01%); “+” in the test on Salmonella choleraesuis (Fluorescent Light, 0.1%); “+” with Salmonella choleraesuis (Fluorescent Light, 1%); “+” with Salmonella choleraesuis (LED Light, 0.01%); “+” with Salmonella choleraesuis (LED Light, 0.1%); “+” in the test with Salmonella choleraesuis (LED Light, 1%). Moreover, the “Killing of Staph aureus biofilm” value is reported as “+” in the test on Staphylococcus aureus (Fluorescent Light, 0.01%); “+” with Staphylococcus aureus (Fluorescent Light, 0.1%); “+” in the test on Staphylococcus aureus (Fluorescent Light, 1%); “+” in the test on Staphylococcus aureus (LED Light, 0.01%); “+” in the test on Staphylococcus aureus (LED Light, 0.1%); “+” with Staphylococcus aureus (LED Light, 1%).
Take Hemoglobin: Hemoglobin (blood product): the “Killing of Salmonella cholerasuis biofilm (eradication or growth)” value was “−” in the test with Salmonella choleraesuis (Fluorescent Light, 0.01%); “−” in the test on Salmonella choleraesuis (Fluorescent Light, 0.1%); “−” with Salmonella choleraesuis (Fluorescent Light, 1%); “+” in the test with Salmonella choleraesuis (LED Light, 0.01%); “+” with Salmonella choleraesuis (LED Light, 0.1%); “+” in the test with Salmonella choleraesuis (LED Light, 1%). In addition, the “effective as photodynamic agent in killing biofilm organisms” value in the test with Salmonella choleraesuis (Salmonella choleraesuis and Staphylococcus aureus biofilm, summary of Table 1) was “Effective”. The “Killing of Staph aureus biofilm” value is reported as “+” in the test on Staphylococcus aureus (Fluorescent Light, 0.01%); “+” in the test with Staphylococcus aureus (Fluorescent Light, 0.1%); “+” in the test with Staphylococcus aureus (Fluorescent Light, 1%); “+” in the test on Staphylococcus aureus (LED Light, 0.01%); “+” with Staphylococcus aureus (LED Light, 0.1%); “+” in the test on Staphylococcus aureus (LED Light, 1%).
For the compound sodium copper chlorophyllin, the “Killing of Salmonella cholerasuis biofilm (eradication or growth)” value was “+” in the test with Salmonella choleraesuis (Fluorescent Light, 0.01%); “+” with Salmonella choleraesuis (Fluorescent Light, 0.1%); “+” with Salmonella choleraesuis (Fluorescent Light, 1%); “+” in the test with Salmonella choleraesuis (LED Light, 0.01%); “+” with Salmonella choleraesuis (LED Light, 0.1%); “+” with Salmonella choleraesuis (LED Light, 1%). Further, the “Killing of Staph aureus biofilm” value with Staphylococcus aureus (Fluorescent Light, 0.01%) is given as “+”; in the test with Staphylococcus aureus (Fluorescent Light, 0.1%), “+”; in the test with Staphylococcus aureus (Fluorescent Light, 1%) it was “+”; in the test on Staphylococcus aureus (LED Light, 0.01%), “+”; in the test with Staphylococcus aureus (LED Light, 0.1%) it was “+”; in the test with Staphylococcus aureus (LED Light, 1%), “+”.

Values taken from patent US20100266716A1, “Natural Photodynamic Agents and their use” (priority 2007, published 2010).
